According to US9745328B2, “Flap modulators” (JANSSEN PHARMACEUTICA NV, priority 2013, dated 2017):
Where two headings read alike, the source gives them in different places.

What was measured:
human FLAP = human FLAP (Homo sapiens (Human), UniProt P20292); assay: FLAP binding assay (HTRF format); conditions: human FLAP wild type, Table 6 (additional runs)
Method in brief: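 Binding values are averages from two separate assay plates, with each sample run in duplicate per plate. Data are expressed as an HTRF ratio.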

[1] = tested on: leukotriene pathway in human whole blood (LTB4); assay: Human whole blood assay (LTB4 levels after calcium ionophore A23187 stimulation); assay type: cell-based; conditions: Homo sapiens, read-out: Human Whole Blood LTB4 IC50 1:1
Method in brief: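 Heparinised human whole blood diluted 1:1 in RPMI, pre-incubated 15 min at 37° Celsius with compound, then stimulated with A23187 (7 μg/mL) for 30 min at 37° Celsius. Plasma LTB4 measured by immunoassay kit; IC50 from 4-parameter fit; single replicate per plate, at least one healthy donor.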

[2] = human whole blood diluted 1:1, A23187 stimulation, Table 6 (additional runs)

human FLAP, sequence (P20292 whole entry): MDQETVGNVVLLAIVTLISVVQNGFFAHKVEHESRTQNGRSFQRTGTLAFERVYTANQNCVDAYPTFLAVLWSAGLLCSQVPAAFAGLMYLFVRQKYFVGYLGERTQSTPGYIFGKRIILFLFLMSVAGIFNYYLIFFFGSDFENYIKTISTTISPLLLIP

Row | SMILES | Ki (human FLAP) [nM] | IC50 [1, 2] [nM] | IC50 [1] [nM]
1 | Nc1cnc(-c2ccc(-c3ccccc3Oc3ccc(C(=O)O)cc3)cc2F)cn1 [Example 888, 4-{[4′-(5-Aminopyrazin-2-yl)-3′-fluorobiphenyl-2-yl]oxy}benzoic acid] | 0.7 | 367 | –
2 | Nc1ncc(-c2ccc(-c3ccccc3Oc3ccc(C(=O)O)cc3)cc2F)cn1 [Example 889, 4-{[4′-(2-Aminopyrimidin-5-yl)-3′-fluorobiphenyl-2-yl]oxy}benzoic acid] | 3.9 | 236 | –
3 | NC(=O)c1ccc(Oc2ccccc2-c2ccc(-c3cnc(N)nc3)c(F)c2)cc1 [Example 890, 4-{[4′-(2-Aminopyrimidin-5-yl)-3′-fluorobiphenyl-2-yl]oxy)benzamide] | 3.7 | 62.3 | –
4 | Nc1cnc(-c2ccc(-c3ccccc3O[C@H]3CC[C@H](N)CC3)cc2F)cn1 [Example 891] | 31.5 | 752 | –
5 | Nc1cnc(-c2ccc(-c3ccc(C(F)(F)F)cc3N)cc2F)cn1 [Example 892, 5-[2′-Amino-3-fluoro-4′-(trifluoromethyl)biphenyl-4-yl]pyrazin-2-amine] | 77.4 | 731 | –
6 | Nc1cnc(-c2ccc(-c3cccnc3-c3ccccc3)cc2F)cn1 [Example 893, 5-[2-Fluoro-4-(2-phenylpyridin-3-yl)phenyl]pyrazin-2-amine] | 30.3 | 603 | –
7 | Nc1cnc(-c2ccc(-c3cccnc3Oc3ccccc3)cc2F)cn1 [Example 894, 5-[2-Fluoro-4-(2-phenoxypyridin-3-yl)phenyl]pyrazin-2-amine] | 3.8 | 141 | –
8 | Nc1ncc(-c2ccc(-c3cccnc3Oc3ccccc3)cc2F)cn1 [Example 895, 5-[2-Fluoro-4-(2-phenoxypyridin-3-yl)phenyl]pyrimidin-2-amine] | 13.2 | 222 | –
9 | Nc1cnc(-c2ccc(-c3cccnc3Oc3cccnc3)cc2F)cn1 [Example 896, 5-{2-Fluoro-4-[2-(pyridin-3-yloxy)pyridin-3-yl]phenyl}pyrazin-2-amine] | 22.1 | 466 | –
10 | Nc1cnc(-c2ccc(-c3cccnc3S(=O)(=O)c3ccccc3)cc2F)cn1 [Example 897, 5-{2-Fluoro-4-[2-(phenylsulfonyl)pyridin-3-yl]phenyl}pyrazin-2-amine] | 7 | 90.3 | –
11 | Nc1ncc(-c2ccc(-c3cccnc3S(=O)(=O)c3ccccc3)cc2F)cn1 [Example 898, 5-{2-Fluoro-4-[2-(phenylsulfonyl)pyridin-3-yl]phenyl}pyrimidin-2-amine] | 79.7 | 928 | –
12 | Nc1cnc(-c2ccc(-c3cccnc3S(=O)(=O)c3cccnc3)cc2F)cn1 [Example 899, 5-{2-Fluoro-4-[2-(pyridin-3-ylsulfonyl)pyridin-3-yl]phenyl}pyrazin-2-amine] | 77 | 87.3 | –
13 | CN1CCC(S(=O)(=O)c2ncccc2-c2ccc(-c3cnc(N)cn3)c(F)c2)C1 (centres unmarked) [Example 900, 5-(2-Fluoro-4-{2-[(1-methylpyrrolidin-3-yl)sulfonyl]pyridin-3-yl}phenyl)pyrazin-2-amine] | 35.1 | 40.8 | –
14 | CC(C)S(=O)(=O)c1nc(C(F)(F)F)ccc1-c1ccc(-c2cnc(N)cn2)c(F)c1 [Example 901, 5-(2-Fluoro-4-{2-[(1-methylethyl)sulfonyl]-6-(trifluoromethyl)pyridin-3-yl}phenyl)pyrazin-2-amine] | 1.8 | 1.6 | –
15 | CC(C)S(=O)(=O)c1nc(C(F)(F)F)ccc1-c1ccc(-c2cnc(N)nc2)c(F)c1 [Example 902, 5-(2-Fluoro-4-{2-[(1-methylethyl)sulfonyl]-6-(trifluoromethyl)pyridin-3-yl}phenyl)pyrimidin-2-amine] | 18.4 | 88.6 | –
16 | CC(=O)N1CCCC(S(=O)(=O)c2ncccc2-c2ccc(-c3cnc(N)cn3)c(F)c2)C1 (centres unmarked) [Example 903, 5-(4-{2-[(1-Acetylpiperidin-3-yl)sulfonyl]pyridin-3-yl}-2-fluorphenyl)pyrazin-2-amine] | 38.7 | 63.4 | –
17 | Nc1cnc(-c2ccc(-c3cccnc3S(=O)(=O)C3CCN(CCO)CC3)cc2F)cn1 [Example 904, 2-[4-({3-[4-(5-Aminopyrazin-2-yl)-3-fluorophenyl]pyridin-2-yl}sulfonyl)pipendin-1-yl]ethanol] | 255 | 105 | –
18 | Nc1cnc(-c2ccc(-c3ccc(C(F)(F)F)nc3S(=O)(=O)C3CCOCC3)cc2F)cn1 [Example 906, 5-{2-Fluoro-4-[2-(tetrahydro-2H-pyran-4-ylsulfonyl)-6-(trifluoromethyl)pyridin-3-yl]phenyl}pyrazin-2-amine] | 0.3 | 2 | –
19 | Nc1ncc(-c2ccc(-c3ccc(C(F)(F)F)nc3S(=O)(=O)C3CCOCC3)cc2F)cn1 [Example 907, 5-{2-Fluoro-4-[2-(tetrahydro-2H-pyran-4-ylsulfonyl)-6-(trifluoromethyl)pyridin-3-yl]phenyl}pyrimidin-2-amine] | 6 | – | 12
20 | CS(=O)(=O)N1CCC(S(=O)(=O)c2ncccc2-c2ccc(-c3cnc(N)cn3)c(F)c2)CC1 [Example 908, 5-[2-Fluoro-4-(2-{[1-(methylsulfonyl)piperidin-4-yl]sulfonyl}pyridin-3-yl)phenyl]pyrazin-2-amine] | 26.6 | 43.7 | –
21 | CS(=O)(=O)N1CCC(S(=O)(=O)c2ncccc2-c2ccc(-c3cnc(N)nc3)c(F)c2)CC1 [Example 909, 5-(2-Fluoro-4-(2-{[1-(methylsulfonyl)piperidin-4-yl]sulfonyl}pyridin-3-yl)phenyl]pyrimidin-2-amine] | 253 | 117 | –
22 | CC(=O)N1CCC(S(=O)(=O)c2nc(C(F)(F)F)ccc2-c2ccc(-c3cnc(N)cn3)c(F)c2)CC1 [Example 910] | 2.9 | 9.2 | –
23 | CC(=O)N1CCC(S(=O)(=O)c2nc(C(F)(F)F)ccc2-c2ccc(-c3cnc(N)nc3)c(F)c2)CC1 [Example 911, 5-(4-{2-[(1-Acetylpiperidin-4-yl)sulfonyl]-6-(trifluoromethyl)pyridin-3-yl}-2-fluorophenyl)pyrimidin-2-amine] | 166 | 28.7 | –
24 | Nc1cnc(-c2ccc(-c3ccc(C(F)(F)F)nc3S(=O)(=O)C3CCS(=O)(=O)CC3)cc2F)cn1 [Example 912, 5-(4-{2-[(1,1-Dioxidotetrahydro-2H-thiopyran-4-yl)sulfonyl]-6-(trifluoromethyl)pyridin-3-yl}-2-fluorophenyl)pyrazin-2-amine] | 0.5 | 8.8 | –
25 | Nc1ncc(-c2ccc(-c3ccc(C(F)(F)F)nc3S(=O)(=O)C3CCS(=O)(=O)CC3)cc2F)cn1 [Example 913, 5-(4-{2-[(1,1-Dioxidotetrahydro-2H-thiopyran-4-yl)sulfonyl]-6-(trifluoromethyl)pyridin-3-yl}-2-fluorophenyl)pyrimidin-2-amine] | 6.3 | 11.9 | –
